According to patent US10485235B2, “Aryloxypyrimidinyl ethers as herbicides” (FMC Corporation, priority 2015, dated 2019):

Key:
Type in all cases: in vivo
[1] = tested on: pigweed (Amaranthus retroflexus); experiment: Test A preemergence, pigweed; conditions: Preemergence, 0 to 100 scale (0 no effect, 100 complete control)
Outline: (§1)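 Ratings run 0–100, where 100 is complete control, and were scored visually against untreated plants about 10 days after treatment under greenhouse conditions. Formulated chemicals were sprayed either onto the soil surface after seeding (preemergence) or onto one- to two-leaf seedlings 2–10 cm high (postemergence).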

[2] = tested on: barnyardgrass (Echinochloa crus-galli); experiment: Test A postemergence, barnyardgrass; conditions: postemergence, 0 to 100 scale, 0 is no effect, 100 is complete control, approximately 10 days
Outline: as §1

[3] = tested on: foxtail, giant (giant foxtail, Setaria faberii); experiment: Test A postemergence, giant foxtail; conditions: postemergence, 0 to 100 scale, 0 is no effect, 100 is complete control, approximately 10 days
Outline: as §1

[4] = tested on: foxtail, giant (giant foxtail, Setaria faberii); experiment: Test A preemergence, giant foxtail; conditions: Preemergence, 0 to 100 scale (0 no effect, 100 complete control)
Outline: as §1

kochia (Kochia scoparia) [5] = experiment: Test A postemergence, kochia; conditions: postemergence, 0 to 100 scale, 0 is no effect, 100 is complete control, approximately 10 days
Outline: as §1

[6] = tested on: barnyardgrass (Echinochloa crus-galli); experiment: Test B flooded paddy test, barnyardgrass; conditions: 250 g ai/ha, Flood; visual rating after 13 to 15 days; scale 0 to 100, 0 is no effect, 100 is complete control
Outline: (§2)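 Seedlings at the 2-leaf stage are flooded to 3 cm and treated via the paddy water. Greenhouse plants are compared with controls after 13 to 15 days and given a 0 (no effect) to 100 (complete control) rating.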

kochia (Kochia scoparia) [7] = experiment: Test A preemergence, kochia; conditions: Preemergence, 0 to 100 scale (0 no effect, 100 complete control)
Outline: as §1

corn (Zea mays) = experiment: Test A postemergence, corn; conditions: postemergence, 0 to 100 scale, 0 is no effect, 100 is complete control, approximately 10 days
Outline: as §1

[8] = tested on: sedge, umbrella (small-flower umbrella sedge, Cyperus difformis); experiment: Test B flooded paddy test, umbrella sedge; conditions: 250 g ai/ha, Flood; visual rating after 13 to 15 days; scale 0 to 100, 0 is no effect, 100 is complete control
Outline: as §2

[9] = tested on: barnyardgrass (Echinochloa crus-galli); experiment: Test A preemergence, barnyardgrass; conditions: Preemergence, 0 to 100 scale (0 no effect, 100 complete control)
Outline: as §1

[10] = tested on: ducksalad (Heteranthera limosa); experiment: Test B flooded paddy test, ducksalad; conditions: 250 g ai/ha, Flood; visual rating after 13 to 15 days; scale 0 to 100, 0 is no effect, 100 is complete control
Outline: as §2

[11] = tested on: pigweed (Amaranthus retroflexus); experiment: Test A postemergence, pigweed; conditions: postemergence, 0 to 100 scale, 0 is no effect, 100 is complete control, approximately 10 days
Outline: as §1

[12] = tested on: blackgrass (Alopecurus myosuroides); experiment: Test A postemergence, blackgrass; conditions: postemergence, 0 to 100 scale, 0 is no effect, 100 is complete control, approximately 10 days
Outline: as §1

[13] = tested on: galium (catchweed bedstraw, Galium aparine); experiment: Test A postemergence, galium; conditions: postemergence, 0 to 100 scale, 0 is no effect, 100 is complete control, approximately 10 days
Outline: as §1

rice (Oryza sativa) = experiment: Test B flooded paddy test, rice; conditions: 250 g ai/ha, Flood; visual rating after 13 to 15 days; scale 0 to 100, 0 is no effect, 100 is complete control
Outline: as §2

[14] = tested on: ryegrass, Italian (Italian ryegrass, Lolium multiflorum); experiment: Test A postemergence, Italian ryegrass; conditions: postemergence, 0 to 100 scale, 0 is no effect, 100 is complete control, approximately 10 days
Outline: as §1

[15] = tested on: ryegrass, Italian (Italian ryegrass, Lolium multiflorum); experiment: Test A preemergence, Italian ryegrass; conditions: Preemergence, 0 to 100 scale (0 no effect, 100 complete control)
Outline: as §1

[16] = tested on: ragweed (common ragweed, Ambrosia elatior); experiment: Test A postemergence, ragweed; conditions: postemergence, 0 to 100 scale, 0 is no effect, 100 is complete control, approximately 10 days
Outline: as §1

[17] = tested on: ragweed (common ragweed, Ambrosia elatior); experiment: Test A preemergence, ragweed; conditions: Preemergence, 0 to 100 scale (0 no effect, 100 complete control)
Outline: as §1

[18] = tested on: wheat (Triticum aestivum); experiment: Test A postemergence, wheat; conditions: postemergence, 0 to 100 scale, 0 is no effect, 100 is complete control, approximately 10 days
Outline: as §1

Compound	Plant response rating, Pigweed ([1]; 125 g ai/ha)	Plant response rating, Barnyardgrass ([2]; 125 g ai/ha)	Plant response rating, Foxtail, Giant ([3]; 125 g ai/ha)	Plant response rating, Foxtail, Giant ([4]; 125 g ai/ha)	Plant response rating, Kochia (kochia (Kochia scoparia) [5]; 125 g ai/ha)	Plant response rating, Barnyardgrass [6]	Plant response rating, Kochia (kochia (Kochia scoparia) [7]; 125 g ai/ha)	Plant response rating, Corn (corn (Zea mays); 125 g ai/ha)	Plant response rating, Sedge, Umbrella [8]	Plant response rating, Barnyardgrass ([9]; 125 g ai/ha)	Plant response rating, Ducksalad [10]	Plant response rating, Pigweed ([11]; 125 g ai/ha)	Plant response rating, Blackgrass ([12]; 125 g ai/ha)	Plant response rating, Galium ([13]; 125 g ai/ha)	Plant response rating, Rice (rice (Oryza sativa))	Plant response rating, Ryegrass, Italian ([14]; 125 g ai/ha)	Plant response rating, Ryegrass, Italian ([15]; 125 g ai/ha)	Plant response rating, Ragweed ([16]; 125 g ai/ha)	Plant response rating, Ragweed ([17]; 125 g ai/ha)	Plant response rating, Wheat ([18]; 125 g ai/ha)	further results
N#CCCCOc1c(F)cccc1Oc1ncc(Cl)cn1 [Compound 24]	90	0	0	30	80	0	60	0	0	20	30	40	0	20	0	0	0	10	0	0	Plant response rating, Pigweed ([1]; 500 g ai/ha): 100; Plant response rating, Barnyardgrass ([2]; 500 g ai/ha): 50; Plant response rating, Foxtail, Giant ([3]; 500 g ai/ha): 30; Plant response rating, Foxtail, Giant ([4]; 500 g ai/ha): 100; Plant response rating, Kochia (kochia (Kochia scoparia) [5]; 500 g ai/ha): 100; Plant response rating, Kochia (kochia (Kochia scoparia) [7]; 500 g ai/ha): 100; Plant response rating, Corn (corn (Zea mays); 500 g ai/ha): 10; Plant response rating, Barnyardgrass ([9]; 500 g ai/ha): 70; Plant response rating, Pigweed ([11]; 500 g ai/ha): 70; Plant response rating, Blackgrass ([12]; 500 g ai/ha): 20; Plant response rating, Galium ([13]; 500 g ai/ha): 80; Plant response rating, Ryegrass, Italian ([14]; 500 g ai/ha): 0; Plant response rating, Ryegrass, Italian ([15]; 500 g ai/ha): 20; Plant response rating, Ragweed ([16]; 500 g ai/ha): 50; Plant response rating, Ragweed ([17]; 500 g ai/ha): 70; Plant response rating, Wheat ([18]; 500 g ai/ha): 0
N#Cc1cccc(Oc2ncc(Cl)cn2)c1OCC(F)F [Compound 16]	100	20	30	100	100	0	100	20	0	80	30	90	10	30	0	0	10	10	60	0	Plant response rating, Pigweed ([1]; 500 g ai/ha): 100; Plant response rating, Barnyardgrass ([2]; 500 g ai/ha): 90; Plant response rating, Foxtail, Giant ([3]; 500 g ai/ha): 100; Plant response rating, Foxtail, Giant ([4]; 500 g ai/ha): 100; Plant response rating, Kochia (kochia (Kochia scoparia) [5]; 500 g ai/ha): 100; Plant response rating, Kochia (kochia (Kochia scoparia) [7]; 500 g ai/ha): 100; Plant response rating, Corn (corn (Zea mays); 500 g ai/ha): 70; Plant response rating, Barnyardgrass ([9]; 500 g ai/ha): 100; Plant response rating, Pigweed ([11]; 500 g ai/ha): 100; Plant response rating, Blackgrass ([12]; 500 g ai/ha): 90; Plant response rating, Galium ([13]; 500 g ai/ha): 90; Plant response rating, Ryegrass, Italian ([14]; 500 g ai/ha): 80; Plant response rating, Ryegrass, Italian ([15]; 500 g ai/ha): 40; Plant response rating, Ragweed ([16]; 500 g ai/ha): 60; Plant response rating, Ragweed ([17]; 500 g ai/ha): 90; Plant response rating, Wheat ([18]; 500 g ai/ha): 20
N#Cc1cccc(Oc2ncc(Cl)cn2)c1OCc1ccc(C(F)(F)F)cc1 [Compound 20]	30	10	10	90	50	0	0	10	0	20	0	90	0	30	0	0	0	20	0	10	Plant response rating, Pigweed ([1]; 500 g ai/ha): 100; Plant response rating, Barnyardgrass ([2]; 500 g ai/ha): 30; Plant response rating, Foxtail, Giant ([3]; 500 g ai/ha): 30; Plant response rating, Foxtail, Giant ([4]; 500 g ai/ha): 100; Plant response rating, Kochia (kochia (Kochia scoparia) [5]; 500 g ai/ha): 100; Plant response rating, Kochia (kochia (Kochia scoparia) [7]; 500 g ai/ha): 50; Plant response rating, Corn (corn (Zea mays); 500 g ai/ha): 20; Plant response rating, Barnyardgrass ([9]; 500 g ai/ha): 30; Plant response rating, Pigweed ([11]; 500 g ai/ha): 90; Plant response rating, Blackgrass ([12]; 500 g ai/ha): 20; Plant response rating, Galium ([13]; 500 g ai/ha): 80; Plant response rating, Ryegrass, Italian ([14]; 500 g ai/ha): 20; Plant response rating, Ryegrass, Italian ([15]; 500 g ai/ha): 20; Plant response rating, Ragweed ([16]; 500 g ai/ha): 30; Plant response rating, Ragweed ([17]; 500 g ai/ha): 0; Plant response rating, Wheat ([18]; 500 g ai/ha): 10
Cc1cccc(Oc2ncc(Cl)cn2)c1OCCC(F)(F)F [Compound 64]	100	10	10	20	20	0	0	10	90	60	85	30	10	0	20	0	0	0	0	0	Plant response rating, Pigweed ([1]; 31 g ai/ha): 0; Plant response rating, Barnyardgrass ([2]; 31 g ai/ha): 0; Plant response rating, Foxtail, Giant ([3]; 31 g ai/ha): 0; Plant response rating, Foxtail, Giant ([4]; 31 g ai/ha): 0; Plant response rating, Kochia (kochia (Kochia scoparia) [5]; 31 g ai/ha): 10; Plant response rating, Kochia (kochia (Kochia scoparia) [7]; 31 g ai/ha): 0; Plant response rating, Corn (corn (Zea mays); 31 g ai/ha): 0; Plant response rating, Barnyardgrass ([9]; 31 g ai/ha): 10; Plant response rating, Pigweed ([11]; 31 g ai/ha): 20; Plant response rating, Blackgrass ([12]; 31 g ai/ha): 0; Plant response rating, Galium ([13]; 31 g ai/ha): 0; Plant response rating, Ryegrass, Italian ([14]; 31 g ai/ha): 0; Plant response rating, Ryegrass, Italian ([15]; 31 g ai/ha): 0; Plant response rating, Ragweed ([16]; 31 g ai/ha): 0; Plant response rating, Ragweed ([17]; 31 g ai/ha): 0; Plant response rating, Wheat ([18]; 31 g ai/ha): 0
N#CCCCOc1c(Cl)cccc1Oc1ncc(Cl)cn1 [Compound 45]	70	10	10	30	50	0	30	10	0	10	20	50	0	20	0	0	0	10	0	0	Plant response rating, Pigweed ([1]; 31 g ai/ha): 20; Plant response rating, Barnyardgrass ([2]; 31 g ai/ha): 0; Plant response rating, Foxtail, Giant ([3]; 31 g ai/ha): 0; Plant response rating, Foxtail, Giant ([4]; 31 g ai/ha): 0; Plant response rating, Kochia (kochia (Kochia scoparia) [5]; 31 g ai/ha): 20; Plant response rating, Kochia (kochia (Kochia scoparia) [7]; 31 g ai/ha): 0; Plant response rating, Corn (corn (Zea mays); 31 g ai/ha): 0; Plant response rating, Barnyardgrass ([9]; 31 g ai/ha): 0; Plant response rating, Pigweed ([11]; 31 g ai/ha): 20; Plant response rating, Blackgrass ([12]; 31 g ai/ha): 0; Plant response rating, Galium ([13]; 31 g ai/ha): 10; Plant response rating, Ryegrass, Italian ([14]; 31 g ai/ha): 0; Plant response rating, Ryegrass, Italian ([15]; 31 g ai/ha): 0; Plant response rating, Ragweed ([16]; 31 g ai/ha): 10; Plant response rating, Ragweed ([17]; 31 g ai/ha): 0; Plant response rating, Wheat ([18]; 31 g ai/ha): 0
